# Reference: paper PMC7217877, “N-AS-triggered SPMs are direct regulators of microglia in a model of Alzheimer’s disease” (Nature Communications, 2020)
# Values joined by “and” are separate entries in the source; they are usually repeats but may differ in a detail not shown here. Identical values can stand only once.
# Molecular target: T1, COX2 S565A (Homo sapiens, UniProt P35354, S565A)
# T1 construct: His (N); made in house
# T1 sequence (P35354 18-604 S565A): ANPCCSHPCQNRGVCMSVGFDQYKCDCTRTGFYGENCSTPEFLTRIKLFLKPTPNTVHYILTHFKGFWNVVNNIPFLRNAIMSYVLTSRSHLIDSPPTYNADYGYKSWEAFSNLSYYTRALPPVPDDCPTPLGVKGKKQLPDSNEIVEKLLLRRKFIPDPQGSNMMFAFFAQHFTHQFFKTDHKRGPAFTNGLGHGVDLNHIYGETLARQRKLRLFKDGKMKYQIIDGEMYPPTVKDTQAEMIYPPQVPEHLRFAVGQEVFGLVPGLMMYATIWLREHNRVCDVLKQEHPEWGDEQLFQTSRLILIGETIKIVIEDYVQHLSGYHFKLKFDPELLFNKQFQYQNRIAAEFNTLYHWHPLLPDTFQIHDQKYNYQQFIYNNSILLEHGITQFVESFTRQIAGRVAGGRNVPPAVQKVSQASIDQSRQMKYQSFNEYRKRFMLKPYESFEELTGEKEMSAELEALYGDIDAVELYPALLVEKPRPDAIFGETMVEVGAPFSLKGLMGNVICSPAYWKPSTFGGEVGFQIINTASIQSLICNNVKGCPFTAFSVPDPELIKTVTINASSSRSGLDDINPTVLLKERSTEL
# Assay: lipid mediator and SPM biosynthesis by recombinant COX2 with 5-LOX (LC-MS/MS)
# Format: biochemical
# Conditions: COX2 S565A + 5-LOX; replicates
# Excerpt: Single point mutations in SphK1 (R56A, R57A, R24A, R185A, D178A, and F192A) and COX2 (S565A, N181A, T564A, and S567A) were generated using the In-Fusion Cloning Kits (Clontech) and ORF cDNA expression plasmids of human SphK1 and COX2 gene (Sino Biological Inc, HG15679-NH and HG12036-NH), according to the manufacturer’s instructions. The forward and reverse primers described in Supplementary Table 4. The SphK1 WT, SphK1 mutants, COX2 WT, and COX2 mutant plasmids were transformed in the One shot TOP 10 competent cell (Invitrogen). The bacteria were grown in Luria-Bertani (LB, Invitrogen) plates supplemented with 50 μg ml^−1 kanamycin (Sigma-Aldrich) at 37 °C. The bacterial cell pellets were resuspended in lysis buffer containing 20 mM sodium phosphate (GE Healthcare), 500 mM NaCl (GE Healthcare), 20 mM imidazole (pH 7.4) (GE Healthcare), 0.2 mg ml^−1 lysozyme (Sigma-Aldrich), 20 μg ml^−1 DNase I (Roche), 1 mM MgCl2 (Sigma-Aldrich), and 1 mM PMSF (Sigma-Aldrich) before being lysed by sonication and clarified by centrifugation at 15,493×g for 10 min. Proteins were purified from the soluble fraction using His-Spin Trap columns (GE Healthcare) and the binding and acetylation assays were performed.
# Lipid mediators metabololipidomics were performed according to previously described procedures with minor modifications[4],[30]. To confirm the biosynthesis of lipid mediators by recombinant COX2 treated with N-AS or aspirin, 10 U of human recombinant COX2 (Cayman, 60122) was incubated in the presence of 500 μM aspirin (Sigma-Aldrich, A5376) or N-AS (Sigma-Aldrich, 01912) at 37 °C for 30 min. The enzyme was filtered with a Microcon column (Millipore) to remove unreacted aspirin or N-AS and was then resuspended in 0.1 M Tris-HCl (pH 8.0). Next, 500 μM phenol (Sigma-Aldrich) and 1 μM hematin-porcine (Sigma-Aldrich) were added immediately before incubation with 100 μM AA, EPA or DHA (Cayman) at 37 °C for 2 h, respectively. The mixtures were incubated with 30 U of human 5-LOX (Cayman, 60402) containing 2 mM CaCl2 (Sigma-Aldrich), 1 mM ATP (Amresco) and 5 μM 13-HpODE (Cayman) as activators. Also, to validate the importance of residue S565 for N-AS-acetylation of COX2 and production of SPMs, 10 U of the COX2 S565A mutant was used in the above-described method. In addition, to confirm SPM generation in neurons and microglia, these cells were treated with Aβ and sonicated in neuronal and glial culture medium. […] To evaluate the relationship of N-AS and SPM production in microglia, microglia were isolated from WT, APP/PS1, and APP/PS1 treated with N-AS mice at 9 months of age. The microglia were sonicated and resuspended in microglial culture medium. The supernatants were incubated with 100 μM AA, EPA, and DHA (Cayman) at 37 °C for 2 h. A 50 μl aliquot of the mixture from each cell lysate was added to a 250 μl aliquot of 1 ng ml^−1 of 15S-LXA4-d5 (internal standard, Cayman) methanol solution. After vortexing for 10 min and centrifuging at 15,974×g for 5 min, the supernatant was subjected to the analysis of the lipid mediators using an Agilent 6470 Triple Quad LC-MS/MS system (Agilent) coupled to an Agilent 1290 HPLC system. Chromatographic separation was achieved using a Synergi Polar RP (4 μm, 2.0 mm i.d. × 150 mm, Phenomenex). Analytes were eluted with a mobile phase consisting of water: formic acid (100:0.1 v/v) (phase A) and methanol: formic acid (100:0.1 v/v) (phase B) in gradient elution mode for 23 min a flow rate of 0.2 ml min^−1. The elution gradient was as follows: from 0 to 0.1 min the content of phase A was 37% and the content of phase A was decreased to 10% and maintained for 5.5 min. The content of phase A was increased back to 37% at 6.0 min and maintained for 23 min. Quantification was carried out using MRM in negative ionization mode and collision energy of 10–15 eV. The mass transition from Q1 to Q3 is shown in Supplementary Table 2. In this study, the peak areas for all components were automatically integrated using MassHunter B 06.00. […]
smiles,measurement,value
"CC(=O)Oc1ccccc1C(=O)O [Aspirin, acetylsalicylic acid, reference compound]",15R-LxA4 quantification (Fig 2c),9150.99 and 8986.22 and 7776.32 and 8811.42 and 9216.35 and 9050.41
same,RvD1 quantification (Fig 2c),427.4 and 465.61 and 668.98 and 626.93 and 591.63 and 656.31 and 339.99
same,RvE1 quantification (Fig 2c),3219.24 and 3312.36 and 4211.76 and 3281.98 and 3114.22 and 3326.6
"CCCCCCCCCCCCC/C=C/[C@@H](O)[C@H](CO)NC(C)=O [N-AS, N-((2S,3R,E)-1,3-Dihydroxyoctadec-4-en-2-yl)acetamide]",15R-LxA4 quantification (Fig 2c),4593.92 and 7037.27 and 8226.06 and 8467.27 and 8518.27
same,RvD1 quantification (Fig 2c),267.45 and 147.28 and 357.09 and 383.18 and 373.27 and 420.17 and 225.36
same,RvE1 quantification (Fig 2c),2644.24 and 1751.77 and 1695.83 and 1984.56 and 2632.92 and 1703.12 and 1993.09
